The target of the first assay is T1, PAD4 enzyme (Homo sapiens (Human), UniProt Q9UM07). As to the kind of experiment: Ammonia Release Biochemical Assay (citrullination detected via ammonia release). As to conditions: BAEE substrate, 60-min preincubation, read-out: NH3 release. The protocol:
Ammonia Release Biochemical Assay
Citrullination assay was detected via ammonia release. PAD4 enzyme was diluted to 120 nM in assay buffer (100 mM HEPES, 50 mM NaCl, 2 mM DDT, 0.6 mg/mL BSA, pH 7.4) added to wells containing various concentration of compound or DMSO vehicle (1% final) in black 384 well plate. Following a 60-min preincubation at room temperature, the reaction was initiated by the addition of substrate (1.5 mM BAEE in 200 mM HEPES, 50 mM NaCl, 350 uM CaCl2, 2 mM, pH 7.4). The reaction was stopped after 60 min by addition of stop/detection buffer containing 50 mM EDTA, 2.6 mM of o-phthaladehyde and 2.6 mM DTT. Assay was incubated at room temperature for 90 min before measuring fluorescence's (2ex 405/2em 460 nm) on Tecan reader. IC50 was calculated using XL-fit software model 205. (Ref: Nat Chem Biol. 2015 March;11 (3): 189-91).
T1 sequence (Q9UM07 whole entry): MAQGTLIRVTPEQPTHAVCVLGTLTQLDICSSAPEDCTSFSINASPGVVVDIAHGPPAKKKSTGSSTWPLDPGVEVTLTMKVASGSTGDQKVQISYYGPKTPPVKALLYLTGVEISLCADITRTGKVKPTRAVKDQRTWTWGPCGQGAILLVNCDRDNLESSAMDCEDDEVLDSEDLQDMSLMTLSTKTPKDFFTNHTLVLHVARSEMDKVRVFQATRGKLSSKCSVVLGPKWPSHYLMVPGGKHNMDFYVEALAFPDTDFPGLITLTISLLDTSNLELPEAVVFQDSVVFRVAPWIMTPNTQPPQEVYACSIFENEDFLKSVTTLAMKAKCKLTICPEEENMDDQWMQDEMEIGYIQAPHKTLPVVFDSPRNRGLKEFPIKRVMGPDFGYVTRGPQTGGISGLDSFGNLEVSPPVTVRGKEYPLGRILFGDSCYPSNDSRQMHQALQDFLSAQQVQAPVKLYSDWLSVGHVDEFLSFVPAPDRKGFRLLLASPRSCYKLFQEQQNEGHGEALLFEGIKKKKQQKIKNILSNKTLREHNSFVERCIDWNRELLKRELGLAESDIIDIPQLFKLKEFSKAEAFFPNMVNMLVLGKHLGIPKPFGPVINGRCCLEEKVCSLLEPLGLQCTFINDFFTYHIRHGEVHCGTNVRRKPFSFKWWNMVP
For the molecule `COc1ccc(Cn2c(-c3nc4cc(C(=O)N5CCC[C@@H](N)C5)cc5c4n3CCO5)cc3cccc(Cl)c32)cc1` [Example 39, (R)-(3-aminopiperidin-1-yl)(2-(7-chloro-1-(4-methoxybenzyl)-1H-indol-2-yl)-3,4-dihydro-5-oxa-1,2a-diazaacenaphthylen-7-yl)methanone], the IC50 is not above 1000 nM. Still for that read-out and setting: under `N[C@@H]1CCCN(C(=O)c2cc3c4c(c2)nc(-c2cc5cccc(Cl)c5n2CC2CCC2)n4CCO3)C1` [Example 53, (R)-(3-aminopiperidin-1-yl)(2-(7-chloro-1-(cyclobutylmethyl)-1H-indol-2-yl)-3,4-dihydro-5-oxa-1,2a-diazaacenaphthylen-7-yl)methanone] stands not above 1000 nM; under `N[C@@H]1CCCN(C(=O)c2cc3c4c(c2)nc(-c2cc5ccccc5n2CC2CCC2)n4CCO3)C1` [Example 41, (R)-(3-aminopiperidin-1-yl)(2-(1-(cyclobutylmethyl)-1H-indol-2-yl)-3,4-dihydro-5-oxa-1,2a-diazaacenaphthylen-7-yl)methanone], not above 1000 nM; under `N[C@@H]1CCCN(C(=O)c2cc3c4c(c2)nc(-c2cc5ccccc5n2CC2CC2)n4CCO3)C1` [Example 1, (R)-(3-aminopiperidin-1-yl)(2-(1-(cyclopropylmethyl)-1H-indol-2-yl)-3,4-dihydro-5-oxa-1,2a-diazaacenaphthylen-7-yl)methanone], not above 1000 nM.

In the next assay the target is T1, PAD4 enzyme. As to the kind of experiment: FP Binding assay. As to conditions: fluorescein labelled probe JPAD-00085, 60 minutes. The procedure: Binding of compounds with PAD4 enzyme was detected by FP assay. PAD4 enzyme was diluted to 1 uM in assay buffer (100 mM HEPES, 50 mM NaCl, 1 mM DTT, 5% Glycerol and 1 mM CHAPS) and added to wells containing various concentration of compounds or DMSO vehicle (1%) in a 384 well black plate. 10 nM of fluorescein labelled probe (JPAD-00085) was added to the plate. Assay plate was incubated for 60 minutes at room temperature before measuring FP reading at FP module (ex 485/2em 535 nm) on Pherastar. IC50 was calculated using XL-fit software model 205. (Ref: Nat Chem Biol. 2015 March; 11 (3): 189-91).
In turn, `CCc1c(-c2nc3cc(C(=O)N4CCC[C@@H](N)C4)cc4c3n2CCO4)sc2ccccc12` [Example 12, (R)-(3-aminopiperidin-1-yl)(2-(3-ethylbenzo[b]thiophen-2-yl)-3,4-dihydro-5-oxa-1,2a-diazaacenaphthylen-7-yl)methanone] yielded an IC50 not above 1000 nM. In the case of `N[C@@H]1CCCN(C(=O)c2cc3c4c(c2)nc(-c2cc5cc(F)ccc5n2CC2CC2)n4CCN3)C1` [Example 64, R-(3-aminopiperidin-1-yl)(2-(1-(cyclopropylmethyl)-5-fluoro-1H-indol-2-yl)-5,6-dihydro-4H-imidazo[1,5,4-de]quinoxalin-8-yl)methanone], the IC50 is not above 1000 nM. On the same count and under the same terms, under `Cc1cccc2cc(-c3nc4cc(C(=O)N5CCC[C@@H](N)C5)cc5c4n3CCO5)n(CC3CC3)c12` [Example 8, (R)-(3-aminopiperidin-1-yl)(2-(1-(cyclopropylmethyl)-7-methyl-1H-indol-2-yl)-3,4-dihydro-5-oxa-1,2a-diazaacenaphthylen-7-yl)methanone] stands not above 1000 nM; under `COc1ccc(Cn2c(-c3nc4cc(C(=O)N5CCC[C@@H](N)C5)cc5c4n3CCO5)cc3ccccc32)cc1` [Example 19, (R)-(3-aminopiperidin-1-yl)(2-(1-(4-methoxybenzyl)-1H-indol-2-yl)-3,4-dihydro-5-oxa-1,2a-diazaacenaphthylen-7-yl)methanone], not above 1000 nM; under `N[C@@H]1CCCN(C(=O)c2cc3c4c(c2)nc(-c2cc5cc(F)c(F)cc5n2CC2CC2)n4CCN3)C1` [Example 77, (R)-(3-aminopiperidin-1-yl)(2-(1-(cyclopropylmethyl)-5,6-difluoro-1H-indol-2-yl)-5,6-dihydro-4H-imidazo[1,5,4-de]quinoxalin-8-yl)methanone], not above 1000 nM.

`CN1CCn2c(-c3cc4ccccc4n3CC3CC3)nc3cc(C(=O)N4CCC[C@@H](N)C4)cc1c32` [Example 72, R-(3-aminopiperidin-1-yl)(2-(1-(cyclopropylmethyl)-1H-indol-2-yl)-6-methyl-5,6-dihydro-4H-imidazo[1,5,4-de]quinoxalin-8-yl)methanone] returned an IC50 not above 1000 nM. The same measure, in the same setting: next, `N[C@@H]1CCCN(C(=O)c2cc3c4c(c2)nc(-c2cc5ccccc5n2CC2CC2)n4CCN3)C1` [Example 63, (R)-(3-aminopiperidin-1-yl)(2-(1-(cyclopropylmethyl)-1H-indol-2-yl)-5,6-dihydro-4H-imidazo[1,5,4-de]quinoxalin-8-yl)methanone]: not above 1000 nM; `COc1ccc2cc(-c3nc4cc(C(=O)N5CCC[C@@H](N)C5)cc5c4n3CCN5)n(CC3CC3)c2c1` [Example 73, (R)-(3-aminopiperidin-1-yl)(2-(1-(cyclopropylmethyl)-6-methoxy-1H-indol-2-yl)-5,6-dihydro-4H-imidazo[1,5,4-de]quinoxalin-8-yl)methanone]: not above 1000 nM; `N[C@@H]1CCCN(C(=O)c2cc3c4c(c2)nc(-c2cc5ccccc5n2Cc2ccccc2F)n4CCO3)C1` [Example 14, (R)-(3-aminopiperidin-1-yl)(2-(1-(2-fluorobenzyl)-1H-indol-2-yl)-3,4-dihydro-5-oxa-1,2a-diazaacenaphthylene-7-yl)methanone]: not above 1000 nM. Same read-out and setting: under `N[C@@H]1CCCN(C(=O)c2cc3c4c(c2)nc(-c2cc5ccccc5n2Cc2ccncc2)n4CCO3)C1` [Example 10, (R)-(3-aminopiperidin-1-yl)(2-(1-(pyridin-4-ylmethyl)-1H-indol-2-yl)-3,4-dihydro-5-oxa-1,2a-diazaacenaphthylene-7-yl)methanone] stands not above 1000 nM. The same measure, in the same setting: next, `N[C@@H]1CCCN(C(=O)c2cc3c4c(c2)nc(-c2cc5ccccc5n2Cc2ccccn2)n4CCO3)C1` [Example 11, (R)-(3-aminopiperidin-1-yl)(2-(1-(pyridine-2-ylmethyl)-1H-indol-2-yl)-3,4-dihydro-5-oxa-1,2a-diazaacenaphthylen-7-yl)methanone]: not above 1000 nM; `NCC1CCCCN1C(=O)c1cc2c3c(c1)nc(-c1cc4ccccc4n1CC1CC1)n3CCO2` (stereo not shown) [Example 4, (2-(aminomethyl)piperidin-1-yl)(2-(1-(cyclopropylmethyl)-1H-indol-2-yl)-3,4-dihydro-5-oxa-1,2a-diazaacenaphthylen-7-yl)methanone]: not below 10000 nM.
